For one assay, the system named is M. tuberculosis. To be noted: related compounds from the literature (Tran et al. 2004); cited from earlier work.
For a further assay, the system named is Staphylococcus aureus. As to the kind of experiment: broth microdilution assay (MIC). The assay is classed as cell-based. Particulars: S. aureus, read-out: minimum inhibitory concentration (MIC). The procedure: FIG. 3D illustrates the determination of the minimal inhibitory concentrations (MICs) of the red and blue 1,4 benzoquinones against Staphylococcus aureus. The MICs determined by the broth microdilution assay are 4 μg/mL for the red 1,4 benzoquinone and 6 μg/mL for the blue 1,4 benzoquinone. Ampicillin was used as a positive control. Each result is reported as the mean±SD.
This difference was confirmed using a broth microdilution assay (FIG. 3D). The minimum inhibitory concentration (MIC) for S. aureus growth was 4 μg/mL for the red 1,4 benzoquinone and 6 μg/mL for the blue 1,4 benzoquinone (FIG. 3D, Table 1). Ampicillin (MIC=0.5 μg/mL) was used as a positive control (ESCMID Eo (2003) Clin. Microbiol. Infect. 9: ix-xv; Pieterse et al., (2010) Brazil. J. Microbiol. 41: 133-145). These compounds were bactericidal at their MICs, killing 90% of S. aureus in 6 h and 99.9% in 24 h (Table 2).

In brackets after ≈: the same amount, converted by molar mass.

With `O=C1C=CC(=O)C=C1` [1,4-benzoquinone], the MIC in the assay on M. tuberculosis is 25 µg/mL (≈ 231 µM).

`O=C1C=CC(=O)c2ccccc21` [1,4-napthoquinone]: in the assay with M. tuberculosis, the MIC is 100 µg/mL (≈ 632 µM).

As for `CC1(C)S[C@@H]2[C@H](NC(=O)[C@H](N)c3ccccc3)C(=O)N2[C@H]1C(=O)O` [Ampicillin, reference compound], the MIC in the assay on Staphylococcus aureus came out at 0.5 µg/mL (≈ 1.43 µM).

The values are drawn from patent publication US20210214303A1, “SCORPION VENOM BENZOQUINONE DERIVATIVES AND USES THEREOF” (priority 2018, published 2021).
